Experimental data as given in patent US7223759B2, “Antibacterial 3,5-diaminopiperidine-substituted aromatic and heteroaromatic compounds” (Anadys Pharmaceuticals, Inc., priority 2003, dated 2007).

Test system: Escherichia coli (ATCC25922) or Staphylococcus aureus (ATCC25923)
Experiment: Antibacterial MIC, microdilution method in Mueller-Hinton medium
Type: cell-based
Conditions: Escherichia coli, 18 h, MIC in E. coli or S. aureus; two-fold serial dilutions 64 to 0.5 μg/ml in duplicate; 18 hours of incubation at 35° C.; read-out: Potency (MIC)
Summary of the method: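 Read after 18 h incubation at 35° C, MIC is the lowest compound level that blocked growth. Compounds were tested in duplicate over 64–0.5 μg/ml two-fold dilutions using Mueller-Hinton microdilution per NCCLS standard.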

How did the MIC turn out when `Cl.N[C@@H]1C[C@H](N)CN(c2nc(Nc3ccccc3)nc(N3C[C@H](N)C[C@H](N)C3)n2)C1` [N-phenyl-44,6-Bis-((3R,5S)-3,5-diamino-piperidin-1-yl)-[1,3,5]triazine-2-amine] was run?
Its MIC is greater than 64 µg/mL.

`N[C@@H]1C[C@H](N)CN(c2nc(NC3CCCNC3)nc(N3C[C@H](N)C[C@H](N)C3)n2)C1` (stereo partly drawn) [N-piperidin-3-yl-4,6-Bis-((3R,5S)-3,5-diamino-piperidin-1-yl)-[1,3,5]triazine-2-amine] was tested. Which MIC did it give?
Its MIC is greater than 64 µg/mL.

With `N[C@@H]1CC(c2nc(NC3CCNCC3)nc(N3C[C@H](N)C[C@H](N)C3)n2)C[C@H](N)C1` (stereo partly drawn) [N-piperidin-4-yl-4,6-Biss-((3R,5S)-3,5-diamino-piperidin-1-yl)-[1,3,5]triazine-2-amine] as the compound, how does the MIC read?
The MIC was greater than 64 µg/mL.

How did the MIC turn out when `N[C@@H]1C[C@H](N)CN(c2nc(Nc3ccc4ccc5cccc6ccc3c4c56)nc(N3C[C@H](N)C[C@H](N)C3)n2)C1` [N-pyren-1-yl-4,6-Bis-((3R,5S)-3,5-diamino-piperidin-1-yl)-[1,3,5]triazine-2-amine] was run?
The MIC was less than 16 µg/mL.

For `N[C@@H]1C[C@H](N)CN(c2nc(NC3CCNC3)nc(N3C[C@H](N)C[C@H](N)C3)n2)C1` (stereo partly drawn) [N-pyrrolidin-3-yl-4,6-Bis-((#r,5S)-3,5-diamino-piperidin-1-yl)-[1,3,5]triazine-2-amine], which MIC is on record?
The MIC was greater than 64 µg/mL.

With `N[C@@H]1C[C@H](N)CN(c2nc(Nc3cccc(NC(=O)c4cc5cccc(O)c5cc4O)c3)nc(N3C[C@H](N)C[C@H](N)C3)n2)C1` [N-{3-[(3,5-dihydroxy-naphthalene-2-carbonyl)-amino]-phenyl}-4,6-Bis-((3R,5S)-3,5-diamino-piperidin-1-yl)-[1,3,5]triazine-2-amine] as the compound, how does the MIC read?
The MIC was less than 64 µg/mL.

How did the MIC turn out when `Cl.O=C(Nc1ccc(Nc2nc(N3CCCCC3)nc(N3CCCCC3)n2)cc1Cl)c1ccc(C(F)(F)F)nc1O` [N-{3-chlorro-4-[(2-hydroxy-6-trifluoromethyl-pyridine-3-carbonyl)-amino]-phenyl}-4,6-Bis-((3R,5S)-3,5-diamino-piperidin-1-yl)-[1,3,5]triazine-2-amine] was run?
Its MIC is less than 16 µg/mL.

With `Cc1ccc(S(=O)(=O)NC(Cc2ccccc2)C(=O)Nc2ccc(Nc3nc(N4CCCCC4)nc(N4CCCCC4)n3)cc2O)cc1.Cl` [N-{3-hydroxy-4-[3-phenyl-2-(toluene-4-sulfonylamino)-propionylamino]-phjenyl}-4,6-Bis-((3R,5S)-3,5-diamino-piperidin-1-yl)-[1,3,5]triazine-2-amine] as the compound, how does the MIC read?
Its MIC is less than 16 µg/mL.

`N[C@@H]1C[C@H](N)CN(c2nc(Nc3ccc(NC(=O)c4ccc5ccccc5c4)c(O)c3)nc(N3C[C@H](N)C[C@H](N)C3)n2)C1` [N-{3-hydroxy-4-[(naphthalene-2-carbonyl)-amino]-phenyl}-4,6-Bis-((3R,5S)-3,5-diamino-piperidin-1-yl)-[1,3,5]triazine-2-amine] was tested. Which MIC did it give?
Its MIC is less than 64 µg/mL.

With `N[C@@H]1C[C@H](N)CN(c2nc(Nc3ccc(NC(=O)c4cnc5ccccc5n4)c(O)c3)nc(N3C[C@H](N)C[C@H](N)C3)n2)C1` [N-{3-hydroxy-4-[(quinoxaline-2-carbonyl)-amino]-phenyl}-4,6-Bis-((3R,5S)-3,5-diamino-piperidin-1-yl)-[1,3,5]triazine-2-amine] as the compound, how does the MIC read?
Its MIC is less than 64 µg/mL.

For `COc1cnc(NS(=O)(=O)c2ccc(Nc3nc(N4C[C@H](N)C[C@H](N)C4)nc(N4C[C@H](N)C[C@H](N)C4)n3)cc2)nc1` [N-{4-(5-methoxy-pyrimidin-2-ylsulfamoyl)-phenyl]-4,6-Bis-((3R,5S)-3,5-diamino-piperidin-1-yl)-[1,3,5]triazine-2-amine], which MIC is on record?
Its MIC is greater than 64 µg/mL.

Same assay, conditions: Escherichia coli, 18 h, read-out: Potency (MIC)

With `N[C@@H]1C[C@H](N)CN(c2nc(Nc3ccc4ccccc4c3)nc(N3C[C@H](N)C[C@H](N)C3)n2)C1` [N-naphthalene-2-yl-4,6-Bis-((3R,5S)-3,5-diamino-piperidin-1-yl)-[1,3,5]triazine-2-amine] as the compound, how does the MIC read?
Its MIC is less than 64 µg/mL.

Which MIC does the source give for `N[C@@H]1C[C@H](N)CN(c2nc(Nc3ccc(NC(=O)c4ccc(N5Cc6ccccc6C5)cc4O)c(Cl)c3)nc(N3C[C@H](N)C[C@H](N)C3)n2)C1` [N-{3-chloro-4-[4-(1,3-dihydro-isoindol-2-yl)-2-hydroxy-benzoylamino]-phenyl}-4,6-Bis-((3R,5S)-3,5-diamino-piperidin-1-yl)-[1,3,5]triazine-2-amine] here?
The MIC was less than 16 µg/mL.

Which MIC does the source give for `N[C@@H]1C[C@H](N)CN(c2nc(Nc3ccc(NC(=O)c4c(O)ccc5ccccc45)c(Cl)c3)nc(N3C[C@H](N)C[C@H](N)C3)n2)C1` [N-{3-chloro-4-[(2-hydroxy-naphthalene-1-carbonyl)-amino]-phenyl}-4,6-Bis-((3R,5S)-3,5-diamino-piperidin-1-yl)-[1,3,5]triazine-2-amine] here?
The MIC was less than 16 µg/mL.

`N[C@@H]1C[C@H](N)CN(c2nc(Nc3ccc(NC(=O)C(=O)c4c[nH]c5ccccc45)c(O)c3)nc(N3C[C@H](N)C[C@H](N)C3)n2)C1` [N-{3-hydroxy-4-[2-(1H-indol-3-yl)-2-oxo-acetylamino]-phenyl}-4,6-Bis-((3R,5S)-3,5-diamino-piperidin-1-yl)-[1,3,5]triazine-2-amine] was tested. Which MIC did it give?
The MIC was less than 16 µg/mL.

Which MIC does the source give for `N[C@@H]1C[C@H](N)CN(c2nc(Nc3ccc(NS(=O)(=O)c4ccc5c(c4)CN(C(=O)C(F)(F)F)CC5)c(O)c3)nc(N3C[C@H](N)C[C@H](N)C3)n2)C1` [N-{3-hydroxy-4-[2-(2,2,2-trifluoro-acetyl)-1,2,3,4-tetrahydro-isoquinoline-7-sulfonylamino]-phenyl}-4,6-Bis-((3R,5S)-3,5-diamino-piperidin-1-yl)-[1,3,5]triazine-2-amine] here?
The MIC was greater than 64 µg/mL.

Which MIC does the source give for `CC(C)CCCCCC(=O)Nc1ccc(S(=O)(=O)Nc2ccc(Nc3nc(N4C[C@H](N)C[C@H](N)C4)nc(N4C[C@H](N)C[C@H](N)C4)n3)cc2O)cc1` [N-{3-hydroxy-4-[4-(7-methyl-octanoylamino)-benzenesulfonylamino]-phenyl}-4,6-Bis-((3R,5S)-3,5-diamino-piperidin-1-yl)-[1,3,5]triazine-2-amine] here?
The MIC was less than 16 µg/mL.

Which MIC does the source give for `Cc1ccc(C(=O)Nc2ccc(Nc3nc(N4C[C@H](N)C[C@H](N)C4)nc(N4C[C@H](N)C[C@H](N)C4)n3)cc2O)c(O)n1` [N-{3-hydroxy-4-[(2-hydroxy-6-methyl-pyridine-3-carbonyl)-amino]-phenyl}-4,6-Bis-((3R,5S)-3,5-diamino-piperidin-1-yl)-[1,3,5]triazine-2-amine] here?
The MIC was less than 64 µg/mL.

`N[C@@H]1C[C@H](N)CN(c2nc(Nc3ccc(NC(=O)c4ccc(C(F)(F)F)nc4O)c(O)c3)nc(N3C[C@H](N)C[C@H](N)C3)n2)C1` [N-{3-hydroxy-4-[(2-hydroxy-6-trifluoromethyl-pyridine-3-carbonyl)-amino]-phenyl}-4,6-Bis-((3R,5S)-3,5-diamino-piperidin-1-yl)-[1,3,5]triazine-2-amine] was tested. Which MIC did it give?
Its MIC is less than 64 µg/mL.

`N[C@@H]1C[C@H](N)CN(c2nc(Nc3ccc(NC(=O)c4c(O)ccc5ccccc45)c(O)c3)nc(N3C[C@H](N)C[C@H](N)C3)n2)C1` [N-{3-hydroxy-4-[(2-hydroxy-naphthalene-1-carbonyl)-amino]-phenyl}-4,6-Bis-((3R,5S)-3,5-diamino-piperidin-1-yl)-[1,3,5]triazine-2-amine] was tested. Which MIC did it give?
Its MIC is less than 16 µg/mL.

With `N[C@@H]1C[C@H](N)CN(c2nc(Nc3ccc(NC(=O)c4cccnc4O)c(O)c3)nc(N3C[C@H](N)C[C@H](N)C3)n2)C1` [N-{3-hydroxy-4-[(2-hydroxy-pyridine-3-carbonyl)-amino]-phenyl}-4,6-Bis-((3R,5S)-3,5-diamino-piperidin-1-yl)-[1,3,5]triazine-2-amine] as the compound, how does the MIC read?
Its MIC is less than 16 µg/mL.
